Reference: ChEMBL document CHEMBL1143091, “Synthesis and SAR studies of biaryloxy-substituted triazoles as antifungal agents” (2008)
≈ marks a conversion by molar mass, not a printed value.

Experiments:
Candida tropicalis = assay: Antimicrobial activity against Candida tropicalis isolates; format: functional
Candida parapsilosis = assay: Antimicrobial activity against Candida parapsilosis isolates; details: Lodderomyces parapsilosis
Trichophyton rubrum = assay: Antimicrobial activity against Trichophyton rubrum isolates; format: functional
Candida albicans = assay: Antimicrobial activity against Candida albicans ATCC 76615; format: functional
Fonsecaea compacta = assay: Antimicrobial activity against Fonsecaea compacta isolates; format: functional
Aspergillus fumigatus = assay: Antimicrobial activity against Aspergillus fumigatus isolates; format: functional
Nannizzia gypsea = assay: Antimicrobial activity against Microsporum gypseum isolates; format: functional
Cryptococcus neoformans = assay: Antimicrobial activity against Cryptococcus neoformans ATCC 32609; format: functional

Row | SMILES | MIC (Candida tropicalis) [µg/mL] | MIC (Candida parapsilosis) [µg/mL] | MIC (Trichophyton rubrum) [µg/mL] | MIC (Candida albicans) [µg/mL] | MIC (Fonsecaea compacta) [µg/mL] | MIC (Aspergillus fumigatus) [µg/mL] | MIC (Nannizzia gypsea) [µg/mL] | MIC (Cryptococcus neoformans) [µg/mL]
1 | O=C(Nc1ccc(-c2ccc(OCC(O)(Cn3cncn3)c3ccc(F)cc3F)cc2)cn1)c1ccc(CN2CCCCC2)cc1 (stereo unspecified) | 0.0625 (≈ 0.1 µM) | 0.0625 (≈ 0.1 µM) | 0.25 (≈ 0.4 µM) | 0.0625 (≈ 0.1 µM) | 1 (≈ 1.6 µM) | 4 (≈ 6.4 µM) | 1 (≈ 1.6 µM) | 1 (≈ 1.6 µM)
2 | C[C@@H]1COC[C@H](C)N1Cc1ccc(C(=O)Nc2ccc(-c3ccc(OCC(O)(Cn4cncn4)c4ccc(F)cc4F)cc3)cn2)cc1 (stereo partly specified) | 0.0625 (≈ 0.0955 µM) | 0.0625 (≈ 0.0955 µM) | > 64 | 0.0625 (≈ 0.0955 µM) | 16 (≈ 24.4 µM) | > 64 | > 64 | 4 (≈ 6.11 µM)
3 | Oc1ccccc1CNc1ccc(-c2ccc(OCC(O)(Cn3cncn3)c3ccc(F)cc3F)cc2)cn1 (stereo unspecified) | 0.0625 (≈ 0.118 µM) | 0.0625 (≈ 0.118 µM) | 0.0625 (≈ 0.118 µM) | 0.0625 (≈ 0.118 µM) | 0.25 (≈ 0.472 µM) | 64 (≈ 121 µM) | 0.0625 (≈ 0.118 µM) | > 64
4 | Cc1ccc(C(=O)Nc2ccc(-c3ccc(OCC(O)(Cn4cncn4)c4ccc(F)cc4F)cc3)cn2)cc1 (stereo unspecified) | 0.0625 (≈ 0.115 µM) | 0.0625 (≈ 0.115 µM) | 0.0625 (≈ 0.115 µM) | 0.0625 (≈ 0.115 µM) | 1 (≈ 1.85 µM) | > 64 | 0.25 (≈ 0.462 µM) | 0.25 (≈ 0.462 µM)
5 | O=C(CCl)Nc1ccc(-c2ccc(OCC(O)(Cn3cncn3)c3ccc(F)cc3F)cc2)cn1 (stereo unspecified) | 0.25 (≈ 0.5 µM) | 0.25 (≈ 0.5 µM) | 0.25 (≈ 0.5 µM) | 0.25 (≈ 0.5 µM) | 1 (≈ 2 µM) | > 64 | 1 (≈ 2 µM) | 1 (≈ 2 µM)
6 | O=C(Nc1ccc(-c2ccc(OCC(O)(Cn3cncn3)c3ccc(F)cc3F)cc2)cn1)c1ccc(CCl)cc1 (stereo unspecified) | 0.0625 (≈ 0.109 µM) | 0.0625 (≈ 0.109 µM) | 0.25 (≈ 0.434 µM) | 0.0156 (≈ 0.0271 µM) | 1 (≈ 1.74 µM) | > 64 | 1 (≈ 1.74 µM) | 0.25 (≈ 0.434 µM)
7 | CCN(CC)Cc1ccc(C(=O)Nc2ccc(-c3ccc(OCC(O)(Cn4cncn4)c4ccc(F)cc4F)cc3)cn2)cc1 (stereo unspecified) | 0.0625 (≈ 0.102 µM) | 0.25 (≈ 0.408 µM) | 1 (≈ 1.63 µM) | 0.0625 (≈ 0.102 µM) | 0.25 (≈ 0.408 µM) | > 64 | 1 (≈ 1.63 µM) | 4 (≈ 6.53 µM)
8 | OC(COc1ccc(-c2ccc(NCc3ccccc3)nc2)cc1)(Cn1cncn1)c1ccc(F)cc1F (stereo unspecified) | 0.25 (≈ 0.487 µM) | 0.0625 (≈ 0.122 µM) | 0.25 (≈ 0.487 µM) | 0.25 (≈ 0.487 µM) | 4 (≈ 7.79 µM) | 4 (≈ 7.79 µM) | > 64 | 1 (≈ 1.95 µM)
9 | Cc1cccc(C(=O)Nc2ccc(-c3ccc(OCC(O)(Cn4cncn4)c4ccc(F)cc4F)cc3)cn2)c1 (stereo unspecified) | 0.25 (≈ 0.462 µM) | 0.25 (≈ 0.462 µM) | 1 (≈ 1.85 µM) | 0.25 (≈ 0.462 µM) | 1 (≈ 1.85 µM) | 64 (≈ 118 µM) | 1 (≈ 1.85 µM) | 0.25 (≈ 0.462 µM)
10 | CCNc1ccc(-c2ccc(OCC(O)(Cn3cncn3)c3ccc(F)cc3F)cc2)cn1 (stereo unspecified) | 0.0625 (≈ 0.138 µM) | 0.0625 (≈ 0.138 µM) | > 64 | 0.0625 (≈ 0.138 µM) | 1 (≈ 2.21 µM) | > 64 | > 64 | 16 (≈ 35.4 µM)
11 | OC(COc1ccc(-c2ccc(NCc3cccc(Cl)c3)nc2)cc1)(Cn1cncn1)c1ccc(F)cc1F (stereo unspecified) | 0.25 (≈ 0.456 µM) | 0.25 (≈ 0.456 µM) | 4 (≈ 7.3 µM) | 4 (≈ 7.3 µM) | 4 (≈ 7.3 µM) | > 64 | 1 (≈ 1.82 µM) | 4 (≈ 7.3 µM)
12 | OC(COc1ccc(-c2ccc(CNc3cccc(Cl)c3)cc2)cc1)(Cn1cncn1)c1ccc(F)cc1F (stereo unspecified) | 0.25 (≈ 0.457 µM) | 0.25 (≈ 0.457 µM) | 1 (≈ 1.83 µM) | 0.25 (≈ 0.457 µM) | > 64 | > 64 | > 64 | > 64
13 | CN(Cc1ccc(-c2ccc(OCC(O)(Cn3cncn3)c3ccc(F)cc3F)cc2)cc1)c1ccccc1 (stereo unspecified) | 0.25 (≈ 0.475 µM) | 1 (≈ 1.9 µM) | 16 (≈ 30.4 µM) | 1 (≈ 1.9 µM) | 16 (≈ 30.4 µM) | > 64 | > 64 | 1 (≈ 1.9 µM)
14 | OCc1ccc(-c2ccc(OCC(O)(Cn3cncn3)c3ccc(F)cc3F)cc2)cc1 (stereo unspecified) | 0.0156 (≈ 0.0357 µM) | 0.0625 (≈ 0.143 µM) | 1 (≈ 2.29 µM) | 0.0156 (≈ 0.0357 µM) | 16 (≈ 36.6 µM) | > 64 | 1 (≈ 2.29 µM) | 1 (≈ 2.29 µM)
15 | CNCc1ccc(-c2ccc(OCC(O)(Cn3cncn3)c3ccc(F)cc3F)cc2)cc1 (stereo unspecified) | 0.25 (≈ 0.555 µM) | 0.25 (≈ 0.555 µM) | 0.0625 (≈ 0.139 µM) | 0.25 (≈ 0.555 µM) | 4 (≈ 8.88 µM) | > 64 | 1 (≈ 2.22 µM) | 64 (≈ 142 µM)
16 | CN(C)Cc1ccc(-c2ccc(OCC(O)(Cn3cncn3)c3ccc(F)cc3F)cc2)cc1 (stereo unspecified) | 0.0625 (≈ 0.135 µM) | 0.25 (≈ 0.538 µM) | 0.0625 (≈ 0.135 µM) | 0.25 (≈ 0.538 µM) | 4 (≈ 8.61 µM) | 64 (≈ 138 µM) | 1 (≈ 2.15 µM) | 4 (≈ 8.61 µM)
17 | O=Cc1ccc(-c2ccc(OCC(O)(Cn3cncn3)c3ccc(F)cc3F)cc2)cc1 (stereo unspecified) | 0.25 (≈ 0.574 µM) | > 64 | 1 (≈ 2.3 µM) | 0.0625 (≈ 0.144 µM) | 0.25 (≈ 0.574 µM) | > 64 | 0.25 (≈ 0.574 µM) | 1 (≈ 2.3 µM)
